Assay [1] deals with cyclic GMP in human fetal fibroblasts. The assay can be described thus: In vitro stimulation of cGMP production assay, human fetal fibroblasts with isobutylmethylxanthine, radioimmunoassay (NO reporter cell assay). The assay is classed as cell-based. The settings on record: 120 min, isobutylmethylxanthine present; basal 1.8. How it is done: (§1) Selected compounds were tested in three in vitro and two in vivo assays. The in vitro assays consisted of the following: measuring the effect of the compounds to inhibit the increase of prostaglandins following treatment of human fetal fibroblasts cells with interleukin-1 followed by arachidonic acid, measuring the effect of the compounds on cyclic GMP in the human fetal fibroblasts, and measuring the smooth muscle relaxant activity in rat aortic rings. The in vivo assay consists of measuring the antiinflammatory properties of the compounds in the carageenan treated rat air pouch model and the relaxant activity on acetylcholine-induced bronchoconstriction in guinea-pigs.
B. In vitro stimulation of cGMP production assay: Human fetal fibroblasts in the presence of isobutylmethylxanthine, an inhibitor of phosphodiesterase, were treated with compounds for 120 min and the intra-cellular cyclic GMP levels are measured by a radioimmunoassay. The cell line is utilized as a reporter cell assay to monitor the production of NO.

Assay [2] relates to rat aortic ring smooth muscle. The assay is described as follows: In vitro smooth relaxant activity assay, rat aortic rings precontracted with phenylephrine. Type of assay: cell-based. The note with it: for EC50: Rattus norvegicus, in the presence of Cys and L-NAME, precontracted with phenylephrine (0.3 μM), read-out: Relaxation, EC50; for smooth muscle relaxant activity (in words): rat aortic rings, Cys and L-NAME, FIGS. 1 and 2. As to the method: as §1
C. In vitro smooth relaxant activity assay: Selected compounds were examined for the ability to relax smooth muscle. The rat aortic ring assay was utilized as a bioassay to measure the relaxant activity. The rings were precontracted with phenylephrine (0.3 μM) and subsequently compounds were added to the tissue bath in the presence of cysteine (Cys) and N^G -L-nitro-arginine methyl ester (L-NAME): […]

Assay [3] deals with prostaglandin E2 (PGE2) synthesis in human fetal fibroblasts cells. The assay is described as follows: In vitro inhibition of prostaglandin E2 (PGE2) synthesis assay, human fetal fibroblasts treated with IL-1 then arachidonic acid, ELISA. The assay is classed as cell-based. The note with it: IL-1 16 h then arachidonic acid; compound 10 uM added with IL-1; basal 3.5, IL-1, AA alone 40.0. As to the method:
as §1
A. In vitro inhibiton of prostaglandin E2 (PGE2) synthesis assay: Human fetal fibroblasts cells were treated with IL-1 for 16 hours and then with 10 mM arachidonic acid (AA). The prostaglandin E2 levels were measured by an ELISA. Compounds were given at the time of addition of IL-1. This assay provides an in vitro assessment of the compound to block the induction of the proinflammatory agent prostaglandin E2 (PGE2): […]
On the technique in general: In an ELISA, binding on a coated surface is turned into a signal by an enzyme label.

The subject of assay [4] is prostaglandin E2 in pouch fluid (carageenan-induced inflammation). The assay can be described thus: In vivo anti inflammatory assay, rat carageenan air pouch. As to the method:
as §1
D. In vivo anti inflammatory assay: EXAMPLE 1 was tested for antiinflammatory activity in vivo in the rat carageenan air pouch assay. Rats are injected subcutaneously with a volume of air over several days to form a pouch. […] The inflammation is measured by assaying the pouch fluid for prostaglandin E2 by ELISA. Examples 1 at 3 mg/kg dose blocked the increase in prostaglandin E2 by 60%.

Bounds are passed on as bounds.

What is called EC50 is the concentration at which the effect is half-maximal. Regarding `CC(=O)OCC(=O)[C@@]1(O)CC[C@H]2[C@@H]3CCC4=CC(=O)C=C[C@]4(C)[C@H]3[C@@H](ON=O)C[C@@]21C` [Example 1], the “cyclic GMP” value in assay [1] turned out to be 4.8 fm/cell well. In addition, in assay [2], the EC50 was found to be 20 nM. The PGE2 in assay [3] is 9.2 ng. In addition, in assay [4], the “ability to reduce inflammation in vivo (in words)” value is reported as “possess the ability to reduce inflammation in vivo”. Further, in assay [4] (3 mg/kg), the “blocked the increase in prostaglandin E2” value turned out to be 60%.
`C[C@]12C=CC(=O)C=C1CC[C@@H]1[C@@H]2[C@@H](ON=O)C[C@@]2(C)[C@H]1CC[C@]2(O)C(=O)CO` [Example 2]: in assay [2], the EC50 turned out to be 30 nM.
For the compound `CCC(=O)OCC(=O)[C@@]1(OC(=O)CC)[C@@H](C)C[C@H]2[C@@H]3CCC4=CC(=O)C=C[C@]4(C)[C@@]3(Cl)[C@@H](ON=O)C[C@@]21C` [Example 11], in assay [2], the EC50 came to 40 nM.
Turning to `CCC(=O)OCC(=O)[C@@]1(OC(=O)CC)[C@@H](C)C[C@H]2[C@@H]3CCC4=CC(=O)C=C[C@]4(C)[C@@]3(Cl)[C@@H](O[N+](=O)[O-])C[C@@]21C` [beclomethasone dipropionate-11-nitrate ester], in assay [2], the EC50 came out at 2000 nM.
For the compound `CCC(=O)OCC(=O)[C@@]1(OC(=O)CC)[C@@H](C)C[C@H]2[C@@H]3CCC4=CC(=O)C=C[C@]4(C)[C@@]3(Cl)[C@@H](O)C[C@@]21C` [beclomethasone dipropionate], in assay [2], the EC50 is over 100000 nM and the “smooth muscle relaxant activity (in words)” value is reported as “did not show any effect”.
Regarding `CC(=O)OCC(=O)[C@@]1(O)CC[C@H]2[C@@H]3CCC4=CC(=O)C=C[C@]4(C)[C@H]3[C@@H](O[N+](=O)[O-])C[C@@]21C` [prednisolone-11-nitrate ester-21-acetate], the EC50 in assay [2] is 25000 nM.
On to `C[C@]12C=CC(=O)C=C1CC[C@@H]1[C@@H]2[C@@H](O)C[C@@]2(C)[C@H]1CC[C@]2(O)C(=O)CO` [prednisolone], for which the “cyclic GMP” value in assay [1] is on record as 1.6 fm/cell well. Further, the “smooth muscle relaxant activity (in words)” value in assay [2] is given as “did not show any effect”. In addition, in assay [3], the PGE2 was 9.9 ng.

(Values after US5707984A, “Steroid nitrite/nitrate ester derivatives useful as anti-inflammatory drugs” (G. D. Searle & Co., priority 1995, dated 1998).)
